Source: paper PMC10175918 (Communications Biology, 2023)
Where two headings read alike, the source gives them in different places.

Legend:
Test in all cases: TGFα-shedding assay-based GPCR screening with chimeric Gα subunit proteins
Type in all cases: cell-based
348 GPCRs [1] = molecular target: T1, 348 GPCRs (Homo sapiens, UniProt P0DMS8); details: 10µM, Favipiravir 100μM
T1 construct: expressed in transfected cells; host or cells: HEK293A
T1 sequence (P0DMS8 1-318): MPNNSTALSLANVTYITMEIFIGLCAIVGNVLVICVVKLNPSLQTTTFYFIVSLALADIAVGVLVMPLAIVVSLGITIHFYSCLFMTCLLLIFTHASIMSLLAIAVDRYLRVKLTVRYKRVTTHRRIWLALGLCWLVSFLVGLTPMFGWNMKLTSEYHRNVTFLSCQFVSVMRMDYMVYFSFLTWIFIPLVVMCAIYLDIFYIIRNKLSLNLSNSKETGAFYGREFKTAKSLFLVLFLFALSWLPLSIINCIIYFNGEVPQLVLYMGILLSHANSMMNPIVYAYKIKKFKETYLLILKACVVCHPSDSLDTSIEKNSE

348 GPCRs [2] = molecular target: T2, 348 GPCRs (Homo sapiens, UniProt Q9UJ42); details: 10µM, Favipiravir 100μM
T2 construct: expressed in transfected cells; host or cells: HEK293A

348 GPCRs [3] = molecular target: T3, 348 GPCRs (Homo sapiens, UniProt P49286); details: 10µM, Favipiravir 100μM
T3 construct: expressed in transfected cells; host or cells: HEK293A
T3 sequence (P49286 1-362): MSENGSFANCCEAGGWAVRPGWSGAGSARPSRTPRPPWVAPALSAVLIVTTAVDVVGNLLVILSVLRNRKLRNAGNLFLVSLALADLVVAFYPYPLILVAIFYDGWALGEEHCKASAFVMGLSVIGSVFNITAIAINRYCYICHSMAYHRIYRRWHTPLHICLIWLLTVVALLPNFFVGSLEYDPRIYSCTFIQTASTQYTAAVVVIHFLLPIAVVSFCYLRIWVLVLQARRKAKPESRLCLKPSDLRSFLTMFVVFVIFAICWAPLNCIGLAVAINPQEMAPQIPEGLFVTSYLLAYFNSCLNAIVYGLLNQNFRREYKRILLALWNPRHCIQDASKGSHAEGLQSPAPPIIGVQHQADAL

348 GPCRs [4] = molecular target: T4, 348 GPCRs (Homo sapiens, UniProt Q15077)
T4 construct: expressed in transfected cells; host or cells: HEK293A

348 GPCRs [5] = molecular target: T5, 348 GPCRs (Homo sapiens, UniProt Q9BZJ7)
T5 construct: expressed in transfected cells; host or cells: HEK293A

348 GPCRs [6] = molecular target: T6, 348 GPCRs (Homo sapiens, UniProt P21452); details: 10µM, Favipiravir 100μM
T6 construct: expressed in transfected cells; host or cells: HEK293A
T6 sequence (P21452 1-398): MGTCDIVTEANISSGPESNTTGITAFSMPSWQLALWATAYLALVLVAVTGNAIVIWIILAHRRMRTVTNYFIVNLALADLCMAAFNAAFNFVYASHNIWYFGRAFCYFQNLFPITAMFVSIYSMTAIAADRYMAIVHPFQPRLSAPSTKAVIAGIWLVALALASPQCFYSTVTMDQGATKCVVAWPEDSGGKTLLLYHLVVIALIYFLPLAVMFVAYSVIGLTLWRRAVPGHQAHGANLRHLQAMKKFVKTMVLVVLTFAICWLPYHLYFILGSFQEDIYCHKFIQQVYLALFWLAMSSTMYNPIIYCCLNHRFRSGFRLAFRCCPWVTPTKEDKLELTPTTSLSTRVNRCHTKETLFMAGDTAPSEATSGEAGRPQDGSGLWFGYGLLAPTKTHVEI

348 GPCRs [7] = molecular target: T7, 348 GPCRs (Homo sapiens, UniProt Q14833); details: 10µM, Favipiravir 100μM
T7 construct: expressed in transfected cells; host or cells: HEK293A

348 GPCRs [8] = molecular target: T8, 348 GPCRs (Homo sapiens, UniProt Q9Y5X5); details: 10µM, Favipiravir 100μM
T8 construct: expressed in transfected cells; host or cells: HEK293A

348 GPCRs [9] = molecular target: T9, 348 GPCRs (Homo sapiens, UniProt P43088); details: 10µM, Favipiravir 100μM
T9 construct: expressed in transfected cells; host or cells: HEK293A

348 GPCRs [10] = molecular target: T10, 348 GPCRs (Homo sapiens, UniProt P25105)
T10 construct: expressed in transfected cells; host or cells: HEK293A

348 GPCRs [11] = molecular target: T11, 348 GPCRs (Homo sapiens, UniProt P47893); details: 10µM, Favipiravir 100μM
T11 construct: expressed in transfected cells; host or cells: HEK293A
T11 sequence (P47893 1-321): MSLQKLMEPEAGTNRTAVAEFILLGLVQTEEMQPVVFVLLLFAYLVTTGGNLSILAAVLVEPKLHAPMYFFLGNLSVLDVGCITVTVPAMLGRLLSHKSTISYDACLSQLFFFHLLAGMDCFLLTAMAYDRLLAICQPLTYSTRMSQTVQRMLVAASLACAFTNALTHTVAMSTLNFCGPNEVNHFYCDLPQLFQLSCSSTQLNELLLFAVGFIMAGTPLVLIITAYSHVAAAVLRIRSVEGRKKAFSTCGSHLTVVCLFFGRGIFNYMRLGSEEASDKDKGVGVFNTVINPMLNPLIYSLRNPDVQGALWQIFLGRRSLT

348 GPCRs [12] = molecular target: T12, 348 GPCRs (Homo sapiens, UniProt Q8TDV2); details: 10µM, Favipiravir 100μM
T12 construct: expressed in transfected cells; host or cells: HEK293A

[13] = ADORA3 (adenosine A3 receptor), read-out: % GPCR activation compared to TPA
[14] = GPR160 (G Protein-Coupled Receptor 160), read-out: % GPCR activation compared to TPA
[15] = MT2R (melatonin receptor type 1B), read-out: % GPCR activation compared to TPA
[16] = GPCR P2Y6 (pyrimidinergic receptor P2Y, G-protein coupled, 6), read-out: % GPCR activation compared to TPA
[17] = GPCR GPR62 (G protein-coupled receptor 62), read-out: % GPCR activation compared to TPA
[18] = NK2 (tachykinin receptor 2), read-out: % GPCR activation compared to TPA
[19] = GRM4 (glutamate receptor, metabotropic 4), read-out: % GPCR activation compared to TPA
[20] = NPFF2 (neuropeptide FF receptor 2), read-out: % GPCR activation compared to TPA
[21] = FP (prostaglandin F receptor), read-out: % GPCR activation compared to TPA
[22] = GPCR PAFR (platelet activating factor receptor), read-out: % GPCR activation compared to TPA
[23] = OR3A2 (olfactory receptor, family 3, subfamily A, member 2), read-out: % GPCR activation compared to TPA
[24] = GPR148 (G Protein-Coupled Receptor 148), read-out: % GPCR activation compared to TPA
[25] = read-out: % GPCR activation compared to TPA, ADORA3 (adenosine A3 receptor)
[26] = read-out: % GPCR activation compared to TPA, GPR160 (G Protein-Coupled Receptor 160)
[27] = read-out: % GPCR activation compared to TPA, MT2R (melatonin receptor type 1B)
[28] = read-out: % GPCR activation compared to TPA, GPCR P2Y6 (pyrimidinergic receptor P2Y, G-protein coupled, 6)
[29] = read-out: % GPCR activation compared to TPA, GPCR GPR62 (G protein-coupled receptor 62)
[30] = read-out: % GPCR activation compared to TPA, NK2 (tachykinin receptor 2)
[31] = read-out: % GPCR activation compared to TPA, GRM4 (glutamate receptor, metabotropic 4)
[32] = read-out: % GPCR activation compared to TPA, NPFF2 (neuropeptide FF receptor 2)
[33] = read-out: % GPCR activation compared to TPA, FP (prostaglandin F receptor)
[34] = read-out: % GPCR activation compared to TPA, GPCR PAFR (platelet activating factor receptor)
[35] = read-out: % GPCR activation compared to TPA, OR3A2 (olfactory receptor, family 3, subfamily A, member 2)
[36] = read-out: % GPCR activation compared to TPA, GPR148 (G Protein-Coupled Receptor 148)

T5 sequence (Q9BZJ7 whole entry): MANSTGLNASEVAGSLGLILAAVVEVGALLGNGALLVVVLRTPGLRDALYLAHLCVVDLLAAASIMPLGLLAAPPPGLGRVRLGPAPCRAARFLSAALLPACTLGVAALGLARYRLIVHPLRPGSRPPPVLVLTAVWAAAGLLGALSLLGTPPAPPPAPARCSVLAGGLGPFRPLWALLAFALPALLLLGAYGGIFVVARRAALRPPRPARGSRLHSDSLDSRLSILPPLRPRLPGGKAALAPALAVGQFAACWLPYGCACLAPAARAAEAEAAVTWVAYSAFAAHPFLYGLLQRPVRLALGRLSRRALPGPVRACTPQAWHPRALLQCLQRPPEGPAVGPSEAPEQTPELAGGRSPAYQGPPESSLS
T12 sequence (Q8TDV2 whole entry): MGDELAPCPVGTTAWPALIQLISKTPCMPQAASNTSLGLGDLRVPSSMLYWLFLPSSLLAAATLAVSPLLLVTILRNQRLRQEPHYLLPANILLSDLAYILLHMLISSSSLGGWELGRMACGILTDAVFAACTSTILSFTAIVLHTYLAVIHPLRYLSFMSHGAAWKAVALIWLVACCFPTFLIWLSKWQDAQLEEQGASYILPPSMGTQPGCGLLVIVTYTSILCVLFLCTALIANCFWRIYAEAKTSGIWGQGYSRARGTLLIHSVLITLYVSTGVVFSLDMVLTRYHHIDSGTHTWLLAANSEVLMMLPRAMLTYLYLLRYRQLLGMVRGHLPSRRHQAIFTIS
T2 sequence (Q9UJ42 whole entry): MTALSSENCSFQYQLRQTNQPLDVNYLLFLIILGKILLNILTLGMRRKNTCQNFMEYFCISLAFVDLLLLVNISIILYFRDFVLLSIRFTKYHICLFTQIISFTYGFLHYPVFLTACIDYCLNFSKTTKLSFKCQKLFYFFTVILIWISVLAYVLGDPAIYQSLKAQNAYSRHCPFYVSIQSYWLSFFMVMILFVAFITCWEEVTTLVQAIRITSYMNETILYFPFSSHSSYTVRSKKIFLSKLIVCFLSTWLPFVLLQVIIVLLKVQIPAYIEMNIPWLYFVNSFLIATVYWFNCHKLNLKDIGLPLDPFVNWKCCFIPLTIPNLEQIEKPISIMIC
T8 sequence (Q9Y5X5 whole entry): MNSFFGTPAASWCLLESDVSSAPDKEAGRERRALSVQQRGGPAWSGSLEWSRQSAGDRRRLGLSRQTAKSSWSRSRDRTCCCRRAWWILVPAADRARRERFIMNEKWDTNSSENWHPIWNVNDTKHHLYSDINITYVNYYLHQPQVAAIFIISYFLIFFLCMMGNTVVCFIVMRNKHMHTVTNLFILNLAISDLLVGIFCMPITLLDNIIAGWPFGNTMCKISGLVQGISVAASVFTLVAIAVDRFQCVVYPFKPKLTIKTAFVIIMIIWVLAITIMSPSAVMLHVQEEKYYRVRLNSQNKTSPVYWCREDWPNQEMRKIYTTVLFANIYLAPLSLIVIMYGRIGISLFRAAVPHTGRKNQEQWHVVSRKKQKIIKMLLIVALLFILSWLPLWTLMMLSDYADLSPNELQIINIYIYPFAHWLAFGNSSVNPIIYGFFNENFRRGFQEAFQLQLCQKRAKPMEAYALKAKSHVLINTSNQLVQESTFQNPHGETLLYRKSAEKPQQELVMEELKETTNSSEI
T7 sequence (Q14833 33-912): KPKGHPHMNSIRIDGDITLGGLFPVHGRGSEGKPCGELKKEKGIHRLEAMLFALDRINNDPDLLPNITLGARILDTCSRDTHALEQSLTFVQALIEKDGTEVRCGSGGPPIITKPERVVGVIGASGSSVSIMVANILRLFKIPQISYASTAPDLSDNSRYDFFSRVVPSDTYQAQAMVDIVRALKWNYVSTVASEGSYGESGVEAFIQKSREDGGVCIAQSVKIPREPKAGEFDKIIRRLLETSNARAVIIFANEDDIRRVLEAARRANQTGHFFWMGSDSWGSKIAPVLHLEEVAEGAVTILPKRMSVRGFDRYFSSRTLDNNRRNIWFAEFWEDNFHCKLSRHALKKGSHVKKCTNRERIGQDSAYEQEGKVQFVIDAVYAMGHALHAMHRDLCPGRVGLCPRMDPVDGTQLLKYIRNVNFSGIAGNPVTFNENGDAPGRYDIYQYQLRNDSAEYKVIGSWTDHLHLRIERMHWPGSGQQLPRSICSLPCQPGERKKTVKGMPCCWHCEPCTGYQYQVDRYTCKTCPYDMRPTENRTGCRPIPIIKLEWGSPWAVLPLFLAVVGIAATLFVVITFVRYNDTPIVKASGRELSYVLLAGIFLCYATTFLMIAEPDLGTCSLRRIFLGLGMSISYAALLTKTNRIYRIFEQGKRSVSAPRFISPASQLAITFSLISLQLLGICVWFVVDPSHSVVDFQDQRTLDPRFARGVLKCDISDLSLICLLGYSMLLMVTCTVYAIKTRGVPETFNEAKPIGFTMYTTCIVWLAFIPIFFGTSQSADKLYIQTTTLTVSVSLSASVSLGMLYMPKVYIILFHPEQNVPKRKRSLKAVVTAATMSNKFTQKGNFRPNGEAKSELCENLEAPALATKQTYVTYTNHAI
T10 sequence (P25105 whole entry): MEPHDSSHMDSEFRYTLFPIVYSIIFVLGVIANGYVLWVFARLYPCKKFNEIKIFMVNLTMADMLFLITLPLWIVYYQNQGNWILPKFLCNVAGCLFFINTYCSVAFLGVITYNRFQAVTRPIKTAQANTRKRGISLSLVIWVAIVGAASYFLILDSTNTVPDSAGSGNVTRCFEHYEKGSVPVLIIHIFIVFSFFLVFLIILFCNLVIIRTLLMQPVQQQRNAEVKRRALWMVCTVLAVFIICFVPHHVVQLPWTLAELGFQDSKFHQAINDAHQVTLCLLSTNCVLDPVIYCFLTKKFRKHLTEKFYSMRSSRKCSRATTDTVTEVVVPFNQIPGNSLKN
T4 sequence (Q15077 whole entry): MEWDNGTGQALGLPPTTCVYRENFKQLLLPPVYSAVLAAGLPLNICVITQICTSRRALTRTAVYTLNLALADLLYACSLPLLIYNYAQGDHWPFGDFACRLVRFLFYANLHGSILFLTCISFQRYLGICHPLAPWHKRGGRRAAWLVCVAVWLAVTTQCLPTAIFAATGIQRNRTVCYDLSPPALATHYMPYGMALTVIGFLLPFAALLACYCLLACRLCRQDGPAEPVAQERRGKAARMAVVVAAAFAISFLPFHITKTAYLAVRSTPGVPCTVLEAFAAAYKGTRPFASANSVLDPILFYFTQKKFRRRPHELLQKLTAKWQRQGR
T9 sequence (P43088 whole entry): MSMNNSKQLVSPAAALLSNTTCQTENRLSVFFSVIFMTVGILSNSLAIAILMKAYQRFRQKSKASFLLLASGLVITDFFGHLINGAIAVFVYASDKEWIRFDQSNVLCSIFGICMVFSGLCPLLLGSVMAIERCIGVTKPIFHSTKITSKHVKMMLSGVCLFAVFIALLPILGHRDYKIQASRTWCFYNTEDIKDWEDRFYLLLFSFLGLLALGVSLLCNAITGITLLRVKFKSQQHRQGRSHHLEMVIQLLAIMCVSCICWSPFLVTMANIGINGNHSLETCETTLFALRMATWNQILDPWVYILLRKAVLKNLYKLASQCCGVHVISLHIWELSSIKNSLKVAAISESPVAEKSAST

| Structure (SMILES) | activation at 10 µM (348 GPCRs [1]; [13]) | activation at 10 µM (348 GPCRs [2]; [14]) | activation at 10 µM (348 GPCRs [3]; [15]) | activation at 10 µM (348 GPCRs [4]; [16]) | activation at 10 µM (348 GPCRs [5]; [17]) | activation at 10 µM (348 GPCRs [6]; [18]) | activation at 10 µM (348 GPCRs [7]; [19]) | activation at 10 µM (348 GPCRs [8]; [20]) | activation at 10 µM (348 GPCRs [9]; [21]) | activation at 10 µM (348 GPCRs [10]; [22]) | activation at 10 µM (348 GPCRs [11]; [23]) | activation at 100 µM (348 GPCRs [12]; [24]) | activation at 10 µM (348 GPCRs [1]; [25]) | activation at 10 µM (348 GPCRs [2]; [26]) | activation at 10 µM (348 GPCRs [3]; [27]) | activation at 10 µM (348 GPCRs [4]; [28]) | activation at 10 µM (348 GPCRs [5]; [29]) | activation at 10 µM (348 GPCRs [6]; [30]) | activation at 10 µM (348 GPCRs [7]; [31]) | activation at 10 µM (348 GPCRs [8]; [32]) | also measured |
| --- | --- | --- | --- | --- | --- | --- | --- | --- | --- | --- | --- | --- | --- | --- | --- | --- | --- | --- | --- | --- | --- |
| NC(=O)c1nc(F)cnc1O [favipiravir, 6-fluoro-3-hydroxy-2-pyrazinecarboxamide] | 2.09% | -0.794% | -4.78% |  |  | 1.15% | 1.65% | -0.818% | 0.208% |  | -0.0334% | -3.11% |  |  |  |  |  |  |  |  | activation at 100 µM (348 GPCRs [4]; GPCR P2Y6 (pyrimidinergic receptor P2Y, G-protein coupled, 6), 100μM, read-out: % GPCR activation compared to TPA): -0.384%; activation at 100 µM (348 GPCRs [5]; GPCR GPR62 (G protein-coupled receptor 62), 100μM, read-out: % GPCR activation compared to TPA): -1.63%; activation at 100 µM (348 GPCRs [10]; GPCR PAFR (platelet activating factor receptor), 100μM, read-out: % GPCR activation compared to TPA): -0.53% |
| CCC(CC)COC(=O)[C@H](C)N[P@](=O)(OC[C@H]1O[C@@](C#N)(c2ccc3c(N)ncnn23)[C@H](O)[C@@H]1O)Oc1ccccc1 [remdesivir] |  |  |  |  |  |  |  |  |  |  |  |  | 5.91% | 0.13% | -2.11% | 1.18% | 0.871% | 1.32% | -0.0103% | -0.846% | activation at 10 µM (348 GPCRs [9]; [33]): 1.47%; activation at 10 µM (348 GPCRs [10]; [34]): 6.57%; activation at 10 µM (348 GPCRs [11]; [35]): -3.15%; activation at 100 µM (348 GPCRs [12]; [36]): -2.35% |
| CC(C)OC(=O)[C@H](C)N[P@](=O)(OC[C@H]1O[C@@H](n2ccc(=O)[nH]c2=O)[C@](C)(F)[C@@H]1O)Oc1ccccc1 [sofosbuvir] |  |  |  |  |  |  |  |  |  |  |  |  | -1.59% | 2.1% | -2.8% | -26.6% | 1.52% | -3.34% | 2.56% | -0.549% | activation at 10 µM (348 GPCRs [9]; [33]): -2.66%; activation at 10 µM (348 GPCRs [10]; [34]): -7.19%; activation at 10 µM (348 GPCRs [11]; [35]): -1.07%; activation at 100 µM (348 GPCRs [12]; [36]): -1.48% |

More lines, main results first:

| activation at 10 µM (348 GPCRs [1]; [13]) | activation at 10 µM (348 GPCRs [2]; [14]) | activation at 10 µM (348 GPCRs [3]; [15]) | activation at 10 µM (348 GPCRs [4]; [16]) | activation at 10 µM (348 GPCRs [5]; [17]) | activation at 10 µM (348 GPCRs [6]; [18]) | activation at 10 µM (348 GPCRs [7]; [19]) | activation at 10 µM (348 GPCRs [8]; [20]) | activation at 10 µM (348 GPCRs [9]; [21]) | activation at 10 µM (348 GPCRs [10]; [22]) | activation at 10 µM (348 GPCRs [11]; [23]) | activation at 100 µM (348 GPCRs [12]; [24]) | Structure (SMILES) | activation at 10 µM (348 GPCRs [1]; [25]) | activation at 10 µM (348 GPCRs [2]; [26]) | activation at 10 µM (348 GPCRs [3]; [27]) | activation at 10 µM (348 GPCRs [4]; [28]) | activation at 10 µM (348 GPCRs [5]; [29]) | activation at 10 µM (348 GPCRs [6]; [30]) | activation at 10 µM (348 GPCRs [7]; [31]) | activation at 10 µM (348 GPCRs [8]; [32]) | also measured |
| --- | --- | --- | --- | --- | --- | --- | --- | --- | --- | --- | --- | --- | --- | --- | --- | --- | --- | --- | --- | --- | --- |
| 2.73% | 0.113% | -2.97% | -8.65% | -0.286% | 0.00909% | 1.52% | -0.904% | 0.154% | -1.62% | -9.89% | -2.05% | N#C[C@@]1(c2ccc3c(N)ncnn23)O[C@H](CO)[C@@H](O)[C@H]1O [GS441524] |  |  |  |  |  |  |  |  |  |
| -0.751% | 0.0934% | -1.78% | -17.8% | -0.851% | -2.23% | -0.478% | -0.917% | -0.35% | -6.72% | -0.408% | -3.32% | CC(C)C(=O)OC[C@H]1O[C@@H](n2ccc(NO)nc2=O)[C@H](O)[C@@H]1O [molnupiravir] |  |  |  |  |  |  |  |  |  |
